Experimental data: BindingDB's records for doi:10.1002/cbic.201200272 (Yonsei University, 2012)
pIC50, pKi: −log10 of the molar value.

Target: T1, Pancreatic alpha-amylase (Sus scrofa, UniProt P00690)
T1 sequence (P00690 whole entry): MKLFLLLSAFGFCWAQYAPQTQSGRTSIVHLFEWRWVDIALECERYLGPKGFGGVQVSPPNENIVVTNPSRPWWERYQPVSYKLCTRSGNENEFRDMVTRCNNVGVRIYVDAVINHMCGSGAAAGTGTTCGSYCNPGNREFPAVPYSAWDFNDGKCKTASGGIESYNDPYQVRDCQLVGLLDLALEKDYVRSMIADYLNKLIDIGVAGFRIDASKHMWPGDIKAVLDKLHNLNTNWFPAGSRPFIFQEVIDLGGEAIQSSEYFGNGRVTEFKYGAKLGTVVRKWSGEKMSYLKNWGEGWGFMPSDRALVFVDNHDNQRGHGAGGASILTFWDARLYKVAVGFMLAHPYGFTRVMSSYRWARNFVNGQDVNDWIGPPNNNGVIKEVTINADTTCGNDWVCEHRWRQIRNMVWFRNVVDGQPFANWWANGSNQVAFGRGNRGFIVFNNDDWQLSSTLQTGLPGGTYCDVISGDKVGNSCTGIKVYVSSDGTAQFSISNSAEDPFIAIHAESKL
Test: Enzymatic Activity Assay
Settings: pH 7; 37 °C
Description: To test whether GCTs share a common binding pocket on PPA with acarbose, we performed an experiment according to the method of Yonetani and Theorell.

SMILES	pIC50	pKi
CO[C@@H]1O[C@H](Cn2cc(-c3ccccc3)nn2)[C@@H]2OC(C)(C)OC12 (some centres not stated) [GPESB01]	3.44	3.11
CO[C@@H]1O[C@H](Cn2cc(C3(O)CCCCC3)nn2)[C@@H]2OC(C)(C)OC12 (some centres not stated) [GPESB07]	3.45	3.00
CO[C@@H]1O[C@H](Cn2cc(COC(C)=O)nn2)[C@@H]2OC(C)(C)OC12 (some centres not stated) [GPESB11]	3.90	3.63

Second part, the compound after the results:

pIC50	pKi	SMILES
3.82	3.47	CO[C@@H]1O[C@H](Cn2cc(C3=CCCCC3)nn2)[C@@H]2OC(C)(C)OC12 (some centres not stated) [GPESB02]
4.05	3.69	OC1[C@H](O)O[C@H](Cn2cc(-c3ccccc3)nn2)[C@@H]1O (some centres not stated) [GPESB14]
4.45	4.47	OC1[C@H](O)O[C@H](Cn2cc(C3=CCCCC3)nn2)[C@@H]1O (some centres not stated) [GPESB15]
